Values of other authors as cited in patent publication US20040224039A1, “Compositions and methods for the treatment of diseases and disorder associated with oxidative damage” (priority 2003, published 2004).

Conditions: following the administration of 500 mg aspirin

plasma level: 130 µM
Compound: CC(=O)Oc1ccccc1C(=O)O [aspirin, acetylsalicylic acid]
